Structures can show the parent of a compound that is named as a salt.
Test system: blood and tissues
Assay: Transcriptional profiling, acute (single) dosing, EAE mice: blood and tissues
Assay type: in vivo
Details: for Number of differentially expressed genes identified: Brain / Number of differentially expressed genes identified: Cerebellum / Number of differentially expressed genes identified: Lymph Node / Number of differentially expressed genes identified: Spleen / Number of differentially expressed genes identified: Whole blood / Number of differentially expressed genes identified: Spinal Cord: EAE, Acute Dosing
Description: EAE induction is generally performed by immunization with brain extracts, CNS proteins (such as myelin basic protein), or peptides from such protein emulsified in an adjuvant such as complete Freund's adjuvant, e.g., as described in Linker et al., Brain. 2011 March 134(Pt3): 678-92. […] FIG. 17 depicts exemplary immunophenotyping panels used to analyze various immune cell populations (e.g., T cells, T regulatory cells, NK cells, B cells, myeloid cells). […] The number of independent mice whose tissues were harvested for transcript profiling studies and whose data passed QC is shown in TABLE 15. Animals were exposed to CO2 and whole blood collected via cardiac puncture. Two 100 μl aliquots of whole blood were collected in 1.5 mL microcentrifuge tubes and snap frozen in liquid nitrogen. Peripheral (liver, spleen, kidney and jejunum) and CNS brain (cerebellum, hippocampus, striatum and cortex) tissues were harvested and snap frozen in liquid nitrogen, with special care taken to collect tissues of similar size and from the same location. All samples were stored at -80° C. until RNA extraction was conducted. For RNA preparation, frozen tissues were placed in 2 mL RNAse-free 96-well blocks with 1.5 mL QIAzol Lysis Reagent (QIAgen) and a 3.2 mm stainless steel bead (BioSpec Products, Bartlesville, Okla.). Tissues were disrupted for four cycles of 45 seconds in a Mini-Beadbeater (Biospec Products). RNA was extracted in chloroform and the aqueous phase was mixed with an equal volume of 70% ethanol. Extracted RNA was applied to RNeasy 96 plates and purified by the spin method according to the manufacturer's protocol (RNeasy 96 Universal Tissue Protocol, QIAgen, Hilden Germany). 50 ul of snap frozen mouse blood was re-suspended in lysis buffer with proteinase K and arrayed into deep-well plates for automated RNA extraction. RNA extractions were completed on […] (Beckman Coulter, Indianapolis, Ind.) using Agencourt RNAdvance Blood kit (Part number A35604) according to the manufacturer's specifications. RNA integrity was assessed using the HT RNA reagent kit (Part number 760410, Caliper Life Sciences, Hopkinton, Mass.) using a LabChip GX (PerkinElmer, Waltham, Mass.). RNA samples with a RQS score of >8.0 were considered high quality for downstream microarray processing. […] Washing and staining of the hybridized arrays were completed as described in the GeneChip Expression analysis technical manual for HT plate arrays using the Genechip® Array Station (Affymetrix, Santa Clara, Calif.) with modifications as described in […] et al. The processed GeneChip® plate arrays were scanned using GeneTitan scanner (Affymetrix, Santa Clara, Calif.). Affymetrix scans were subject to quality control (QC) measures. These tests included a visual inspection of the distribution of raw signal intensities and an assessment of RNA degradation, relative log expression (RLE), and normalized unscaled standard error (NUSE). All sample scans that passed these QC metrics were included in the analysis. […] Nucleic Acids Res 2003; 31:e15; Li C, et al. Genome Biol 2001; 2:[…]0032). […] Stat Appl Genet Mol Biol 2004; 3:Article3). […] Springer Science+Business Media 2005). […] Generally, no distinct sample groupings were apparent from this analysis; however, in the following cohorts, differences in EAE severity across the mice were manifest in global gene expression patterns: An example of this animal grouping is shown in FIG. 33 for the spinal cord from the chronically-dosed 7 h EAE mice. […] Three distinct groups of mice result from unsupervised clustering, and these animal groups correlate with the cumulative EAE score. […] Subsequent analyses for the cohorts listed above only included those animals with the most severe EAE scores; however, for the cohorts 'Spinal Cord, Acute Dosing, 7 h' and 'Spleen, Acute Dosing, 12 h,' there were an insufficient number of mice in the different treatment groups to perform such a sub-analysis. […]

[1] = 100 mpk DMF-vs-90 mpk MMF, 7 h after last dosing
[2] = 100 mpk DMF-vs-90 mpk MMF, 12 h after last dosing
[3] = 100 mpk DMF-vs-Vehicle, 7 h after last dosing
[4] = 100 mpk DMF-vs-Vehicle, 12 h after last dosing
[5] = lymph node, 100DMF-vs-Veh, 12 h
[6] = whole blood, 100DMF-vs-Veh, 7 h

COC(=O)/C=C/C(=O)OC [DMF, dimethyl fumarate]
Number of differentially expressed genes identified: Brain [1]: 0 | Number of differentially expressed genes identified: Cerebellum [1]: 0 | Number of differentially expressed genes identified: Lymph Node [1]: 0 | Number of differentially expressed genes identified: Spleen [1]: 0 | Number of differentially expressed genes identified: Whole blood [1]: 0 | Number of differentially expressed genes identified: Brain [2]: 0 | Number of differentially expressed genes identified: Cerebellum [2]: 0 | Number of differentially expressed genes identified: Lymph Node [2]: 0 | Number of differentially expressed genes identified: Spinal Cord [2]: 0 | Number of differentially expressed genes identified: Whole blood [2]: 0 | Number of differentially expressed genes identified: Brain [3]: 0 | Number of differentially expressed genes identified: Cerebellum [3]: 0 | Number of differentially expressed genes identified: Lymph Node [3]: 7 | Number of differentially expressed genes identified: Spleen [3]: 21 | Number of differentially expressed genes identified: Whole blood [3]: 3 | Number of differentially expressed genes identified: Brain [4]: 0 | Number of differentially expressed genes identified: Cerebellum [4]: 0 | Number of differentially expressed genes identified: Lymph Node [4]: 2 | Number of differentially expressed genes identified: Spinal Cord [4]: 1 | Number of differentially expressed genes identified: Whole blood [4]: 0 | differentially expressed genes (cerebellum, 100DMF-vs-90MMF, 7 h): None | differentially expressed genes (cerebellum, 100DMF-vs-90MMF, 12 h): None | differentially expressed genes (cerebellum, 100DMF-vs-Veh, 7 h): None | differentially expressed genes (cerebellum, 100DMF-vs-Veh, 12 h): None | differentially expressed genes (lymph node, 100DMF-vs-90MMF, 7 h): None | differentially expressed genes (lymph node, 100DMF-vs-90MMF, 12 h): None | FC Aox1 (1419435_PM_at) (lymph node, 100DMF-vs-Veh, 7 h): 2.16 | FC F3 1417408_PM_at (lymph node, 100DMF-vs-Veh, 7 h): 1.59 | FC Gclm 1439050_PM_at (lymph node, 100DMF-vs-Veh, 7 h): 1.53 | FC Nqo1 (1423627_PM_at) (lymph node, 100DMF-vs-Veh, 7 h): 2.19 | FC Pir (1429001_PM_at) (lymph node, 100DMF-vs-Veh, 7 h): 1.52 | FC Srxn1 (1419942_PM_at) (lymph node, 100DMF-vs-Veh, 7 h): 1.71 | FC Srxn1 (1426875_PM_s_at) (lymph node, 100DMF-vs-Veh, 7 h): 1.68 | FC Aox1 (1419435_PM_at) [5]: 1.69 | FC Nqo1 (1423627_PM_at) [5]: 1.69 | differentially expressed genes (spinal cord, 100DMF-vs-90MMF, 12 h): None | FC Blvrb (1451386_PM_at) (spinal cord, 100DMF-vs-Veh, 12 h): 1.84 | differentially expressed genes (spleen, 100DMF-vs-90MMF, 7 h): None | FC 1441413_PM_at (spleen, 100DMF-vs-Veh, 7 h): 1.52 | FC 1458902_PM_at (spleen, 100DMF-vs-Veh, 7 h): 1.69 | FC Aox1 (1419435_PM_at) (spleen, 100DMF-vs-Veh, 7 h): 1.74 | FC Cat 1416430_PM_at (spleen, 100DMF-vs-Veh, 7 h): 1.63 | FC Dennd4a 1435975_PM_at (spleen, 100DMF-vs-Veh, 7 h): 1.56 | FC Dnmt31 1425035_PM_s_at (spleen, 100DMF-vs-Veh, 7 h): 1.81 | FC Gclm 1439050_PM_at (spleen, 100DMF-vs-Veh, 7 h): 2.02 | FC Gsta3 (1423436_PM_at) (spleen, 100DMF-vs-Veh, 7 h): 1.74 | FC Gsta3 (1423437_PM_at) (spleen, 100DMF-vs-Veh, 7 h): 1.55 | FC Higd1c /// Mettl7a1 /// Mettl7a2 1434150_PM_a_at (spleen, 100DMF-vs-Veh, 7 h): 2.00 | FC Il1f9 1425958_PM_at (spleen, 100DMF-vs-Veh, 7 h): 2.33 | FC Kif22 1437716_PM_x_at (spleen, 100DMF-vs-Veh, 7 h): 1.53 | FC LOC677317 /// Me1 1416632_PM_at (spleen, 100DMF-vs-Veh, 7 h): 1.52 | FC Nqo1 (1423627_PM_at) (spleen, 100DMF-vs-Veh, 7 h): 3.34 | FC Pir (1429001_PM_at) (spleen, 100DMF-vs-Veh, 7 h): 2.99 | FC Polh 1447837_PM_x_at (spleen, 100DMF-vs-Veh, 7 h): 1.51 | FC Srxn1 (1419942_PM_at) (spleen, 100DMF-vs-Veh, 7 h): 2.08 | FC Srxn1 (1426875_PM_s_at) (spleen, 100DMF-vs-Veh, 7 h): 2.08 | FC Srxn1 (1451680_PM_at) (spleen, 100DMF-vs-Veh, 7 h): 1.84 | FC Tmem41b 1428586_PM_at (spleen, 100DMF-vs-Veh, 7 h): 1.61 | FC Ugt1a1 /// Ugt1a10 /// Ugt1a2 /// Ugt1a5 /// Ugt1a6a /// Ugt1a6b /// Ugt1a7c /// Ugt1a9 (1426261_PM_s_at) (spleen, 100DMF-vs-Veh, 7 h): 1.51 | differentially expressed genes (whole blood, 100DMF-vs-Veh, 12 h): None | differentially expressed genes (whole blood, 100DMF-vs-90MMF, 7 h): None | differentially expressed genes (whole blood, 100DMF-vs-90MMF, 12 h): None | FC Dtx4 1436545_PM_at [6]: 1.72 | FC Egln3 1418649_PM_at [6]: 1.82 | FC Rnf128 (1449036_PM_at) [6]: 1.62
